Results on one molecule are retold here after paper PMC6669322, “Small Molecule Binding to Alzheimer Risk Factor CD33 Promotes Aβ Phagocytosis” (iScience, 2019).

“And” between values parts separate entries of the source, which are not always exact repeats. Equal entries are not always repeated.

One assay concerns the target T1, CD33^C36S (Homo sapiens, UniProt P20138, C36S).
T1 construct: DNA encoding D18 to H143 of human CD33; octa-histidine tag with TEV protease cleavage site (N); made in house
The assay is described as follows: surface plasmon resonance (SPR), CD33^C36S V-set domain. In kind it is binding. The following applies: P22 as analyte, captured CD33^C36S; 1:1 steady state model. As for the experimental part: We next performed surface plasmon resonance (SPR) measurements on P22 binding to CD33 wild-type, and selected mutants, to obtain detailed kinetic data (see Transparent Methods). The CD33 V-set domain has a free cysteine residue (C36), which caused anomalous results in some of our SPR experiments due to disulfide-linked oligomers forming in solution.
Figure 3 P22 Binding to CD33 Wild-Type and Mutants (A) An example of affinity analysis for 1–243 μM (3-fold dilutions) of P22 binding to immobilized CD33^C36S. Data obtained in duplicate using single-cycle analysis and fit to a steady-state binding model to determine the equilibrium binding constant. (B) An example of affinity analysis of P22 binding to immobilized CD33 wild-type (WT) as per example in (A). (C) Sensorgram data for 0.01–9 μM (3-fold dilutions) of CD33^C36S binding to immobilized P22. Data obtained in triplicate using single concentration cycles and fit to a 1:1 binding model for kinetic analysis. (D) Sensorgram data for 0.03–9 μM (3-fold dilutions) CD33 WT binding to immobilized P22. Data obtained in triplicate using single concentration cycles and fit to a bivalent analyte model for kinetic analysis. Measurements in triplicate showing mean ± SD. […] Data presented are representative of three independent experiments performed in quadruplicate for each compound. […]
A general note: SPR reads the build-up and loss of mass on a sensor chip optically.

The next assay relates to human CD33. Details: method as in Rillahan et al., 2014. The settings on record: in words; ref Rillahan et al., 2014; cited from earlier work.

T1 sequence (P20138 18-143 C36S): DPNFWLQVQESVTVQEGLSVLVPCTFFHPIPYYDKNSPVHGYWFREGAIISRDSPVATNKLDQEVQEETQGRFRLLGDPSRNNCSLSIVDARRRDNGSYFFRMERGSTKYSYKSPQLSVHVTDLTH

As for `Cc1cc(C(=O)NC[C@@H](O)[C@@H](O)[C@@H]2O[C@@](OC[C@H]3O[C@@H](O[C@H]4[C@H](O)[C@@H](O)[C@H](OCCN)O[C@@H]4CO)[C@H](O)[C@@H](O)[C@H]3O)(C(=O)O)C[C@H](O)[C@H]2NC(=O)Cn2cc(C3CCCCC3)nn2)cc(C)c1O` [P22, β-D-Glucopyranoside, 2-aminoethyl O-[N-[2-(4-cyclohexyl-1H-1,2,3-triazol-1-yl)acetyl]-9-deoxy-9-[(4-hydroxy-3,5-dimethylbenzoyl)amino]-α-neuraminosyl] (2→6)-O-β-D-galactopyranosyl-(1→4)-], the Kd at CD33^C36S was 95 µM and 95.2 µM. In addition, the “specificity for human CD33 over other human Siglecs” value with human CD33 is “high specificity”.

The term Kd denotes the concentration at which binding is half-saturated. High values mean weaker binding, low ones tighter binding.
